Here are results for 1 compound from article PMC2728224 (Cancer Chemotherapy and Pharmacology, 2009).

The structures appear in SMILES notation.

The target of this test is T1, dihydrofolate reductase (DHFR) (Homo sapiens, UniProt P00374).
T1 sequence (P00374 1-187): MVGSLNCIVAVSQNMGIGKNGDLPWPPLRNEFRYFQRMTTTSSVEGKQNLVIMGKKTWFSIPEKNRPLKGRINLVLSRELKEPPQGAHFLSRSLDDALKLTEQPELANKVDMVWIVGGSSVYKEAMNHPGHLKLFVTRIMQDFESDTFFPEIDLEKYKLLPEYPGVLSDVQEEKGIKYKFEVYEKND
Description: spectrophotometric DHFR activity assay. The test is classed as biochemical.

`C#CCC(Cc1cnc2nc(N)nc(N)c2n1)c1ccc(C(=O)NC(CCC(=O)O)C(=O)O)cc1` (racemic) [pralatrexate] came in with a Ki of 45 nM.

By Ki is commonly meant the equilibrium dissociation constant of an inhibitor or competing ligand from its target.
